Test results taken from paper PMC10239507, “Development of allosteric and selective CDK2 inhibitors for contraception with negative cooperativity to cyclin binding” (Nature Communications, 2023).

Tests used:
Assay in all cases: biochemical
[1] = biological target: T1, 371 kinases (kinase named in each endpoint) (Homo sapiens, UniProt Q13555); settings: CAMK2g
T1 construct: purchased Reaction Biology

[2] = biological target: T2, 371 kinases (kinase named in each endpoint) (Homo sapiens, UniProt Q9H093); settings: SNARK/NUAK2
T2 construct: purchased Reaction Biology

[3] = biological target: T3, 371 kinases (kinase named in each endpoint) (Homo sapiens, UniProt Q8TDC3); settings: BRSK1
T3 construct: purchased Reaction Biology

[4] = biological target: T4, 371 kinases (kinase named in each endpoint) (Homo sapiens, UniProt O43187); settings: IRAK2
T4 construct: purchased Reaction Biology

[5] = biological target: T5, 371 kinases (kinase named in each endpoint) (Homo sapiens, UniProt P42679); settings: CTK/MATK
T5 construct: purchased Reaction Biology

[6] = biological target: T6, 371 kinases (kinase named in each endpoint) (Homo sapiens, UniProt Q9HAZ1); settings: CLK4
T6 construct: purchased Reaction Biology

[7] = biological target: T7, 371 kinases (kinase named in each endpoint) (Homo sapiens, UniProt P36888); settings: FLT3
T7 construct: purchased Reaction Biology

[8] = biological target: T8, 371 kinases (kinase named in each endpoint) (Homo sapiens, UniProt O60285); settings: ARK5/NUAK1
T8 construct: purchased Reaction Biology

[9] = biological target: T9, 371 kinases (kinase named in each endpoint) (Homo sapiens, UniProt Q9UEW8); settings: STK39/STLK3
T9 construct: purchased Reaction Biology

[10] = biological target: T10, 371 kinases (kinase named in each endpoint) (Homo sapiens, UniProt P45983); settings: JNK1
T10 construct: purchased Reaction Biology

[11] = biological target: T11, 371 kinases (kinase named in each endpoint) (Homo sapiens, UniProt Q8IVH8); settings: GLK/MAP4K3
T11 construct: purchased Reaction Biology

[12] = biological target: T12, 371 kinases (kinase named in each endpoint) (Homo sapiens, UniProt Q16620); settings: TRKB
T12 construct: purchased Reaction Biology

[13] = biological target: T13, 371 kinases (kinase named in each endpoint) (Homo sapiens, UniProt O95819); settings: HGK/MAP4K4
T13 construct: purchased Reaction Biology

[14] = biological target: T14, 371 kinases (kinase named in each endpoint) (Homo sapiens, UniProt P10398); settings: ARAF
T14 construct: purchased Reaction Biology

[15] = biological target: T15, 371 kinases (kinase named in each endpoint) (Homo sapiens, UniProt O43353); settings: RIPK2
T15 construct: purchased Reaction Biology

[16] = biological target: T16, 371 kinases (kinase named in each endpoint) (Homo sapiens, UniProt O75385); settings: ULK1
T16 construct: purchased Reaction Biology

[17] = biological target: T17, 371 kinases (kinase named in each endpoint) (Homo sapiens, UniProt Q8IW41); settings: MAPKAPK5/PRAK
T17 construct: purchased Reaction Biology

[18] = biological target: T18, 371 kinases (kinase named in each endpoint) (Homo sapiens, UniProt P42681); settings: TXK
T18 construct: purchased Reaction Biology

[19] = biological target: T19, 371 kinases (kinase named in each endpoint) (Homo sapiens, UniProt P23458); settings: JAK1
T19 construct: purchased Reaction Biology

[20] = biological target: T20, 371 kinases (kinase named in each endpoint) (Homo sapiens, UniProt O14920); settings: IKKb/IKBKB
T20 construct: purchased Reaction Biology

[21] = biological target: T21, 371 kinases (kinase named in each endpoint) (Homo sapiens, UniProt Q8WXR4); settings: MYO3B
T21 construct: purchased Reaction Biology

[22] = biological target: T22, 371 kinases (kinase named in each endpoint) (Homo sapiens, UniProt O00444); settings: PLK4/SAK
T22 construct: purchased Reaction Biology

[23] = biological target: T23, 371 kinases (kinase named in each endpoint) (Homo sapiens, UniProt P29376); settings: TYK1/LTK
T23 construct: purchased Reaction Biology

[24] = biological target: T24, 371 kinases (kinase named in each endpoint) (Homo sapiens, UniProt P49840); settings: GSK3a
T24 construct: purchased Reaction Biology

[25] = biological target: T25, 371 kinases (kinase named in each endpoint) (Homo sapiens, UniProt P22612); settings: PKACG
T25 construct: purchased Reaction Biology

[26] = biological target: T26, 371 kinases (kinase named in each endpoint) (Homo sapiens, UniProt Q9BYP7); settings: WNK3
T26 construct: purchased Reaction Biology

[27] = biological target: T27, 371 kinases (kinase named in each endpoint) (Homo sapiens, UniProt Q15303); settings: ERBB4/HER4
T27 construct: purchased Reaction Biology

[28] = biological target: T28, 371 kinases (kinase named in each endpoint) (Homo sapiens, UniProt O60674); settings: JAK2
T28 construct: purchased Reaction Biology

[29] = biological target: T29, 371 kinases (kinase named in each endpoint) (Homo sapiens, UniProt Q96PY6); settings: NEK1
T29 construct: purchased Reaction Biology

[30] = biological target: T30, 371 kinases (kinase named in each endpoint) (Homo sapiens, UniProt P57059); settings: SIK1
T30 construct: purchased Reaction Biology

[31] = biological target: T31, 371 kinases (kinase named in each endpoint) (Homo sapiens, UniProt Q13233); settings: MEKK1
T31 construct: purchased Reaction Biology

[32] = biological target: T32, 371 kinases (kinase named in each endpoint) (Homo sapiens, UniProt Q02156); settings: PKCEPSILON
T32 construct: purchased Reaction Biology

[33] = biological target: T33, 371 kinases (kinase named in each endpoint) (Homo sapiens, UniProt P49760); settings: CLK2
T33 construct: purchased Reaction Biology

[34] = biological target: T34, 371 kinases (kinase named in each endpoint) (Homo sapiens, UniProt Q02763); settings: TIE2/TEK
T34 construct: purchased Reaction Biology

[35] = biological target: T35, 371 kinases (kinase named in each endpoint) (Homo sapiens, UniProt Q9H422); settings: HIPK3
T35 construct: purchased Reaction Biology

[36] = biological target: T36, 371 kinases (kinase named in each endpoint) (Homo sapiens, UniProt Q13237); settings: PKG2/PRKG2
T36 construct: purchased Reaction Biology

[37] = biological target: T37, 371 kinases (kinase named in each endpoint) (Homo sapiens, UniProt P54764); settings: EPHA4
T37 construct: purchased Reaction Biology

T32 sequence (Q02156 whole entry): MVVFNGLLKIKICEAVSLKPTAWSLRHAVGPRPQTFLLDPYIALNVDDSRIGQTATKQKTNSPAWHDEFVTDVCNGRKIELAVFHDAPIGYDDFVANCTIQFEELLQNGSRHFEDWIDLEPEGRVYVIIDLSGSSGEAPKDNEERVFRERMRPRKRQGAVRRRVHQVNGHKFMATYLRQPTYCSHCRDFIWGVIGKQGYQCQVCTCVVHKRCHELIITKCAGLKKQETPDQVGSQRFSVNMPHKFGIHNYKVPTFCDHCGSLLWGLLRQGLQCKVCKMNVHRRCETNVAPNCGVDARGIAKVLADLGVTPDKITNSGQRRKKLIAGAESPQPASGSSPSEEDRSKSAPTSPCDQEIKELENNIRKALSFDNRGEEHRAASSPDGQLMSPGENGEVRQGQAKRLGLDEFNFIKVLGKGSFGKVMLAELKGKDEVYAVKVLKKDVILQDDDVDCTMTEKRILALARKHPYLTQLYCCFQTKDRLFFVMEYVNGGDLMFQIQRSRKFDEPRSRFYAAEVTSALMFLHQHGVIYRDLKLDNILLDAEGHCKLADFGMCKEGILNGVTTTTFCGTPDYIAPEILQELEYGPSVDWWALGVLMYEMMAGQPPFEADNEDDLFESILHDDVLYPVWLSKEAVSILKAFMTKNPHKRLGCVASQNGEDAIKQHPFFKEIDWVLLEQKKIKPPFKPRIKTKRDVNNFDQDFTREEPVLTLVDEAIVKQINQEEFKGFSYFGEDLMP
T5 sequence (P42679 whole entry): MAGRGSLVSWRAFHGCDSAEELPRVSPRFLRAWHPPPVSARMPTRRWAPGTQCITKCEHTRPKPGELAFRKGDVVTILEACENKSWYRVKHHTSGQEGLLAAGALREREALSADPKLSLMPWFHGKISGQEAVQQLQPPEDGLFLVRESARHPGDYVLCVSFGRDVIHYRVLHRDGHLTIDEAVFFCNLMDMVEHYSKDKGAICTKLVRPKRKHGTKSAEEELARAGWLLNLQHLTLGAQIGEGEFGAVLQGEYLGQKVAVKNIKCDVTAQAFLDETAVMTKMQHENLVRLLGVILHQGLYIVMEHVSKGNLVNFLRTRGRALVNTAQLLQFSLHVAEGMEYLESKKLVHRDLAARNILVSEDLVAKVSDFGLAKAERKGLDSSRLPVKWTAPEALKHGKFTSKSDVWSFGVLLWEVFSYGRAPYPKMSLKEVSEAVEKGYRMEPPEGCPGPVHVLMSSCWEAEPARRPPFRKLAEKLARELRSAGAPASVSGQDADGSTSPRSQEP
T6 sequence (Q9HAZ1 whole entry): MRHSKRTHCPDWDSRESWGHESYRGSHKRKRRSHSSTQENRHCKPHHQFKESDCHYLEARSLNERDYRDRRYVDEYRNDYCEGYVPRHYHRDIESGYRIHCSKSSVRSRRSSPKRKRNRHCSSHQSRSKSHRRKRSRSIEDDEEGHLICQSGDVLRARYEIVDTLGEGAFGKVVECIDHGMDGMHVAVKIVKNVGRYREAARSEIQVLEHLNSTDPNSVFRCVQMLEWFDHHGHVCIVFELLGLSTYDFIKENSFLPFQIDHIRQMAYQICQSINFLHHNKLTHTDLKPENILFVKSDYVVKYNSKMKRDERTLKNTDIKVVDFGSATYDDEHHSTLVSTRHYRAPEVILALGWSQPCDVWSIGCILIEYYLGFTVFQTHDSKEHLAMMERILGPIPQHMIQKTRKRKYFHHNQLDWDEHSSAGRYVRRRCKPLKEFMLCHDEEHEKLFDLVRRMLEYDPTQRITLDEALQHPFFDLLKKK
T4 sequence (O43187 whole entry): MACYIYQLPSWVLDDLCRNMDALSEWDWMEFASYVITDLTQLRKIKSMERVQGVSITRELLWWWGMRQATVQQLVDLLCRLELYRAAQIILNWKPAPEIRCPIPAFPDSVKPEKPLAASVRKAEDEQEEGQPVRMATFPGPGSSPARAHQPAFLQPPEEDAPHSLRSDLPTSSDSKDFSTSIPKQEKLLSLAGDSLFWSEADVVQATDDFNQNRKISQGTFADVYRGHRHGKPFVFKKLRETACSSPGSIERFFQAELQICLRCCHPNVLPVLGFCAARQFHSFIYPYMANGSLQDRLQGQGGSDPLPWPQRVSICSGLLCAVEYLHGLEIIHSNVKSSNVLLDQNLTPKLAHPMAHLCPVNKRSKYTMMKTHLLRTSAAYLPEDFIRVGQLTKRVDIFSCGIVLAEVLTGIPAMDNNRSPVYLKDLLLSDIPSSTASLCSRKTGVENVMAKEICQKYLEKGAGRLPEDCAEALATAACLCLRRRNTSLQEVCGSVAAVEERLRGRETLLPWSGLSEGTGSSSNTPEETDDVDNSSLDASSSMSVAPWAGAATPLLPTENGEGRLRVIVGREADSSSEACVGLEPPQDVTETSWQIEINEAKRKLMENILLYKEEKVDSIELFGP
T35 sequence (Q9H422 whole entry): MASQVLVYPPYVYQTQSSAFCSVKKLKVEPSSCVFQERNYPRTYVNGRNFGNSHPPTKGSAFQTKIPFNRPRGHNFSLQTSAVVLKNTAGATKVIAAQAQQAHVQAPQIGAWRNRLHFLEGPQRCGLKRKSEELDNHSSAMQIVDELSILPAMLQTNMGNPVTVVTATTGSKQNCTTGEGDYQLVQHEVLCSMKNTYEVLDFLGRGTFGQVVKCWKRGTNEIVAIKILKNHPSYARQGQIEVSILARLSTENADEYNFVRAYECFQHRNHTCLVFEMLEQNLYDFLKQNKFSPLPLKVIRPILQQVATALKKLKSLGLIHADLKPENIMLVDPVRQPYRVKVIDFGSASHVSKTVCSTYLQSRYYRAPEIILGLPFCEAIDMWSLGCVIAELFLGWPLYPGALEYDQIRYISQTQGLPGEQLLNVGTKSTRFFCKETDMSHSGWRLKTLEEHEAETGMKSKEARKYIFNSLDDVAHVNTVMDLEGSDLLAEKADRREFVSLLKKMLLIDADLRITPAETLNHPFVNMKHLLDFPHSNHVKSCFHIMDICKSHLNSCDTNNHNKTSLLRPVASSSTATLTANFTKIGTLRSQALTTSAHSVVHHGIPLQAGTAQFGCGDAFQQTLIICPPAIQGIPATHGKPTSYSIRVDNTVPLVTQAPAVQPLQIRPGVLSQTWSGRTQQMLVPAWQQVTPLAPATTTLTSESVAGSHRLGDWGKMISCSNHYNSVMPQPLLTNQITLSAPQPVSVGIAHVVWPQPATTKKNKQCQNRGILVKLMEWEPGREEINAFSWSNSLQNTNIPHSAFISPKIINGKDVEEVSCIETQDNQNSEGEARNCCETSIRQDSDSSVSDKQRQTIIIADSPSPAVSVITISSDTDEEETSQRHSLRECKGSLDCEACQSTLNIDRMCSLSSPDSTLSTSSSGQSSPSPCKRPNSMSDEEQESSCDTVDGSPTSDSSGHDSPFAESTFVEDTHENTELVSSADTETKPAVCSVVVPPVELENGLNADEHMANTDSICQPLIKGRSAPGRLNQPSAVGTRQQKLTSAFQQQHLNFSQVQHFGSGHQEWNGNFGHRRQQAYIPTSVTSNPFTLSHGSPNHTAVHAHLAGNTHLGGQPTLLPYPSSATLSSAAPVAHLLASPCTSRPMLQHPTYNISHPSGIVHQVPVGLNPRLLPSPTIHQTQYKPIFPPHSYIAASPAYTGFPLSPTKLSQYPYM
T10 sequence (P45983 whole entry): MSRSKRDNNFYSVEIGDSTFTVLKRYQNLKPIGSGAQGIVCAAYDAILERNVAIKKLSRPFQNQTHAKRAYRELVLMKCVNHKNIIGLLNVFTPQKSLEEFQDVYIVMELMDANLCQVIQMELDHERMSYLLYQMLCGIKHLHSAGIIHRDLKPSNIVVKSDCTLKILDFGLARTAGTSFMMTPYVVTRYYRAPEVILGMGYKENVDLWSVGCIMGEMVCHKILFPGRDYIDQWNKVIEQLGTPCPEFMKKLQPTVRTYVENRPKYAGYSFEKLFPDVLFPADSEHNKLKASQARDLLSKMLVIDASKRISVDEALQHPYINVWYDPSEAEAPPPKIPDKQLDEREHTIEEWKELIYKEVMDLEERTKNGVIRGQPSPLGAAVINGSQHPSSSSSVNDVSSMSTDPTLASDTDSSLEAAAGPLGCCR
T30 sequence (P57059 whole entry): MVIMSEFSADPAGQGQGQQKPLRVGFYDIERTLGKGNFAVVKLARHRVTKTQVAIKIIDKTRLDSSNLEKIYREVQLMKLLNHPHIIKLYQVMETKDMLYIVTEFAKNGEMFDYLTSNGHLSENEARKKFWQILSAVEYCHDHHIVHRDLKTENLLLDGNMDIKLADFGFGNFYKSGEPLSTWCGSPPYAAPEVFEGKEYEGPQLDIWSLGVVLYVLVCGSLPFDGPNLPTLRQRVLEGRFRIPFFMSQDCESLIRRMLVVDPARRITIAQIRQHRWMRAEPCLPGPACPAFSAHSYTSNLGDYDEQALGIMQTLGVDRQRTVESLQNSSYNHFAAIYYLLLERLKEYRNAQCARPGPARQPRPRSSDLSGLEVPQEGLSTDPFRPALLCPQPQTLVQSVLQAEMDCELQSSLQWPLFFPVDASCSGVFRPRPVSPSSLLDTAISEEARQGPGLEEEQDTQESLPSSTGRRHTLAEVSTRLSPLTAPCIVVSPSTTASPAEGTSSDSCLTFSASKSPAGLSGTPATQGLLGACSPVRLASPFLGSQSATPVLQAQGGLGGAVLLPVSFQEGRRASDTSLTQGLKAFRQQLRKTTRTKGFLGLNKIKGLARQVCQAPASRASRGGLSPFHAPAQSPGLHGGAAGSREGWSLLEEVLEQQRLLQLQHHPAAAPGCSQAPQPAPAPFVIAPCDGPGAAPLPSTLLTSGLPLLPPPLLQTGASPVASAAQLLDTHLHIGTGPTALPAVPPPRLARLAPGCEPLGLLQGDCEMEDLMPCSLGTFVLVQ

O=C(O)c1cc(C(F)(F)F)ccc1NCCc1c[nH]c2cc(Br)ccc12 [Compound 5, 2-((2-(6-Bromo-1H-indol-3-yl)ethyl)amino)−5-(trifluoromethyl)benzoic Acid]
activity at 10 µM [1]: 74.4%
activity at 10 µM [2]: 87.7 ± 2.3%
activity at 10 µM [3]: 77.2 ± 2.3%
activity at 10 µM [4]: 145 ± 0.9%
activity at 10 µM [5]: 71.1 ± 3.8%
activity at 10 µM [6]: 97.4 ± 0.8%
activity at 10 µM [7]: 95.2 ± 1.6%
activity at 10 µM [8]: 75.5 ± 0.1%
activity at 10 µM [9]: 113.4 ± 0.1%
activity at 10 µM [10]: 88.4 ± 1.1%
activity at 10 µM [11]: 97.8 ± 0.3%
activity at 10 µM [12]: 45.4 ± 7.4%
activity at 10 µM [13]: 50.4 ± 0.4%
activity at 10 µM [14]: 91.1 ± 0.8%
activity at 10 µM [15]: 109 ± 2.9%
activity at 10 µM [16]: 106.8 ± 0.3%
activity at 10 µM [17]: 95.4 ± 2%
activity at 10 µM [18]: 80.5 ± 0.4%
activity at 10 µM [19]: 67.7 ± 0.8%
activity at 10 µM [20]: 82.1 ± 0.2%
activity at 10 µM [21]: 97.8 ± 1.5%
activity at 10 µM [22]: 91.2 ± 1.2%
activity at 10 µM [23]: 86.2 ± 1.1%
activity at 10 µM [24]: 67.6 ± 0.3%
activity at 10 µM [25]: 76.2 ± 2.6%
activity at 10 µM [26]: 100.7 ± 0.4%
activity at 10 µM [27]: 96.2 ± 1%
activity at 10 µM [28]: 78.8 ± 1.9%
activity at 10 µM [29]: 91.8 ± 2.3%
activity at 10 µM [30]: 69.3 ± 1%
activity at 10 µM [31]: 110 ± 0.1%
activity at 10 µM [32]: 96.1 ± 0.2%
activity at 10 µM [33]: 104.3 ± 0.7%
activity at 10 µM [34]: 93.7 ± 0.9%
activity at 10 µM [35]: 86.3 ± 2.3%
activity at 10 µM [36]: 117 ± 7.9%
activity at 10 µM [37]: 94.3 ± 0.5%
